Laboratory results taken from ChEMBL document CHEMBL1671626, “In vitro profiling of ceftaroline against a collection of recent bacterial clinical isolates from across the United States” (2008).

What was measured:
Format in all cases: functional
Staphylococcus aureus [1] = experiment: Antibacterial activity against methicillin-susceptible Staphylococcus aureus by CLSI M7-A7 broth microdilution method
Staphylococcus aureus [2] = experiment: Antibacterial activity against methicillin-resistant Staphylococcus aureus by CLSI M7-A7 broth microdilution method
Staphylococcus aureus [3] = experiment: Antibacterial activity against coagulase-negative and oxacillin-susceptible Staphylococcus aureus by CLSI M7-A7 broth microdilution method
Staphylococcus aureus [4] = experiment: Antibacterial activity against coagulase-negative and oxacillin-resistant Staphylococcus aureus by CLSI M7-A7 broth microdilution method
Streptococcus pneumoniae [5] = experiment: Antibacterial activity against penicillin-susceptible Streptococcus pneumoniae by CLSI M7-A7 broth microdilution method
Streptococcus pneumoniae [6] = experiment: Antibacterial activity against penicillin-resistant Streptococcus pneumoniae by CLSI M7-A7 broth microdilution method
Streptococcus pyogenes [7] = experiment: Antibacterial activity against erythromycin-susceptible Streptococcus pyogenes by CLSI M7-A7 broth microdilution method
Streptococcus pyogenes [8] = experiment: Antibacterial activity against erythromycin-nonsusceptible Streptococcus pyogenes by CLSI M7-A7 broth microdilution method
Streptococcus agalactiae [9] = experiment: Antibacterial activity against erythromycin-susceptible Streptococcus agalactiae by CLSI M7-A7 broth microdilution method
Streptococcus agalactiae [10] = experiment: Antibacterial activity against erythromycin-nonsusceptible Streptococcus agalactiae by CLSI M7-A7 broth microdilution method
Streptococcus viridans [11] = experiment: Antibacterial activity against penicillin-susceptible Streptococcus viridans by CLSI M7-A7 broth microdilution method
Streptococcus viridans [12] = experiment: Antibacterial activity against penicillin-nonsusceptible Streptococcus viridans by CLSI M7-A7 broth microdilution method
Enterococcus faecalis [13] = experiment: Antibacterial activity against vancomycin-susceptible Enterococcus faecalis by CLSI M7-A7 broth microdilution method
Enterococcus faecalis [14] = experiment: Antibacterial activity against vancomycin-resistant Enterococcus faecalis by CLSI M7-A7 broth microdilution method
Enterococcus faecium = experiment: Antibacterial activity against vancomycin-resistant Enterococcus faecium by CLSI M7-A7 broth microdilution method
Enterobacteriaceae [15] = experiment: Antibacterial activity against ceftazidime-susceptible Enterobacteriaceae by CLSI M7-A7 broth microdilution method
Enterobacteriaceae [16] = experiment: Antibacterial activity against ceftazidime-nonsusceptible Enterobacteriaceae by CLSI M7-A7 broth microdilution method
Citrobacter freundii [17] = experiment: Antibacterial activity against ceftazidime-susceptible Citrobacter freundii by CLSI M7-A7 broth microdilution method
Citrobacter freundii [18] = experiment: Antibacterial activity against ceftazidime-nonsusceptible Citrobacter freundii by CLSI M7-A7 broth microdilution method
Enterobacter cloacae [19] = experiment: Antibacterial activity against ceftazidime-susceptible Enterobacter cloacae by CLSI M7-A7 broth microdilution method
Enterobacter cloacae [20] = experiment: Antibacterial activity against ceftazidime-nonsusceptible Enterobacter cloacae by CLSI M7-A7 broth microdilution method
Escherichia coli [21] = experiment: Antibacterial activity against ceftazidime-susceptible Escherichia coli by CLSI M7-A7 broth microdilution method
Escherichia coli [22] = experiment: Antibacterial activity against ceftazidime-nonsusceptible Escherichia coli by CLSI M7-A7 broth microdilution method
Klebsiella pneumoniae [23] = experiment: Antibacterial activity against ceftazidime-susceptible Klebsiella pneumoniae by CLSI M7-A7 broth microdilution method
Klebsiella pneumoniae [24] = experiment: Antibacterial activity against ceftazidime-nonsusceptible Klebsiella pneumoniae by CLSI M7-A7 broth microdilution method
Morganella morganii = experiment: Antibacterial activity against ceftazidime-susceptible Morganella morganii by CLSI M7-A7 broth microdilution method
Proteus mirabilis = experiment: Antibacterial activity against ceftazidime-susceptible Proteus mirabilis by CLSI M7-A7 broth microdilution method
Serratia marcescens = experiment: Antibacterial activity against ceftazidime-susceptible Serratia marcescens by CLSI M7-A7 broth microdilution method
Acinetobacter [25] = experiment: Antibacterial activity against multidrug-resistant Acinetobacter by CLSI M7-A7 broth microdilution method
Acinetobacter [26] = experiment: Antibacterial activity against imipenem-susceptible Acinetobacter by CLSI M7-A7 broth microdilution method
Haemophilus influenzae [27] = experiment: Antibacterial activity against beta lactamase-negative Haemophilus influenzae by CLSI M7-A7 broth microdilution method
Haemophilus influenzae [28] = experiment: Antibacterial activity against beta lactamase-positive Haemophilus influenzae by CLSI M7-A7 broth microdilution method
Moraxella catarrhalis = experiment: Antibacterial activity against beta lactamase-positive Moraxella catarrhalis by CLSI M7-A7 broth microdilution method
Pasteurella multocida = experiment: Antibacterial activity against Pasteurella multocida by CLSI M7-A7 broth microdilution method
Providencia sp. = experiment: Antibacterial activity against ceftazidime-susceptible Providencia sp. by CLSI M7-A7 broth microdilution method

CCO/N=C(\C(=O)N[C@@H]1C(=O)N2C(C(=O)[O-])=C(Sc3nc(-c4cc[n+](C)cc4)cs3)CS[C@H]12)c1nsc(NP(=O)(O)O)n1 [CEFTAROLINE FOSAMIL]
0.25 µg/mL: MIC50 (Staphylococcus aureus [1]) | MIC90 (Staphylococcus aureus [1]) | MIC90 (Citrobacter freundii [17]) | MIC90 (Klebsiella pneumoniae [23]) | MIC90 (Moraxella catarrhalis)
16 µg/mL: MIC90 (Morganella morganii) | MIC90 (Serratia marcescens)
4 µg/mL: MIC90 (Enterococcus faecalis [13]) | MIC50 (Enterococcus faecalis [14]) | MIC90 (Enterococcus faecalis [14]) | MIC90 (Proteus mirabilis) | MIC50 (Acinetobacter [26])
2 µg/mL: MIC50 (Enterococcus faecalis [13])
1 µg/mL: MIC90 (Staphylococcus aureus [2]) | MIC90 (Enterobacteriaceae [15]) | MIC90 (Enterobacter cloacae [19]) | MIC50 (Providencia sp.)
0.015 µg/mL: MIC90 (Streptococcus pneumoniae [5]) | MIC90 (Streptococcus pyogenes [8]) | MIC50 (Streptococcus agalactiae [9]) | MIC90 (Streptococcus agalactiae [9]) | MIC50 (Streptococcus agalactiae [10]) | MIC90 (Streptococcus agalactiae [10]) | MIC90 (Haemophilus influenzae [27]) | MIC50 (Haemophilus influenzae [28])
0.06 µg/mL: MIC50 (Staphylococcus aureus [3]) | MIC50 (Enterobacteriaceae [15]) | MIC50 (Escherichia coli [21]) | MIC50 (Klebsiella pneumoniae [23]) | MIC50 (Morganella morganii) | MIC50 (Proteus mirabilis) | MIC50 (Moraxella catarrhalis) | MIC90 (Pasteurella multocida)
0.03 µg/mL: MIC90 (Streptococcus viridans [11]) | MIC90 (Haemophilus influenzae [28])
≤ 0.008 µg/mL: MIC (Streptococcus pneumoniae [5]) | MIC50 (Streptococcus pneumoniae [5]) | MIC (Streptococcus pyogenes [7]) | MIC50 (Streptococcus pyogenes [7]) | MIC90 (Streptococcus pyogenes [7]) | MIC (Streptococcus pyogenes [8]) | MIC50 (Streptococcus pyogenes [8]) | MIC (Streptococcus viridans [11]) | MIC50 (Streptococcus viridans [11]) | MIC (Haemophilus influenzae [27]) | MIC50 (Haemophilus influenzae [27]) | MIC (Pasteurella multocida) | MIC50 (Pasteurella multocida)
0.12 µg/mL: MIC90 (Staphylococcus aureus [3]) | MIC50 (Streptococcus pneumoniae [6]) | MIC90 (Streptococcus pneumoniae [6]) | MIC50 (Streptococcus viridans [12]) | MIC50 (Citrobacter freundii [17]) | MIC50 (Enterobacter cloacae [19])
> 16 µg/mL: MIC50 (Enterococcus faecium) | MIC90 (Enterococcus faecium) | MIC50 (Enterobacteriaceae [16]) | MIC90 (Enterobacteriaceae [16]) | MIC50 (Citrobacter freundii [18]) | MIC90 (Citrobacter freundii [18]) | MIC50 (Enterobacter cloacae [20]) | MIC90 (Enterobacter cloacae [20]) | MIC50 (Escherichia coli [22]) | MIC90 (Escherichia coli [22]) | MIC50 (Klebsiella pneumoniae [24]) | MIC90 (Klebsiella pneumoniae [24]) | MIC50 (Acinetobacter [25]) | MIC90 (Acinetobacter [26]) | MIC90 (Providencia sp.)
0.5 µg/mL: MIC50 (Staphylococcus aureus [2]) | MIC50 (Staphylococcus aureus [4]) | MIC90 (Staphylococcus aureus [4]) | MIC90 (Streptococcus viridans [12]) | MIC90 (Escherichia coli [21]) | MIC50 (Serratia marcescens)
